These results are taken from patent US12329755B2, “Bromodomain inhibitors to target therapy-resistant cancer” (University of Tennessee Research Foundation, priority 2019, dated 2025).

Test [1] has as its system X16 BTIC. The experiment in a line: X16 BTIC mouse flank xenografts. To be noted: combined with TMZ, 8 weeks. In kind it is in vivo, mice. Here is the method: FIG. 1F is a graph showing the effect of temozolomide (TMZ) on the tumorigenicity of control (black portion of bars) and Brahma-related gene-1-knock-down (BRG1-KD) (grey portion of bars) brain-tumor initiating cells (BTICs) after injection of 10^6 tumor cells into the flanks of immunodeficient mice. Live animal imaging preformed at weekly intervals. After confirming tumor initiation by live animal imaging, mice were treated with TMZ by interperitoneal (IP) injection (10 milligrams per kilogram (mg/kg) on alternate days). The reduction in tumor volume was calculated at 1 week (left) and 2 weeks (right) post-treatment. *p≤0.05.
FIG. 5 is a graph showing the effect of Brahma-related gene-1 bromodomain inhibitors (BRIs), PFI-3 and the PFI-3 analogs (PAs) IV-073, IV-077, and IV-085, on the anticancer activity of temozolomide (TMZ) on brain-tumor initiating-cell (BTIC) tumor growth. BTICs (10^6 cells) from X16 glioblastoma were injected into the flanks of immunodeficient mice. After confirming tumor initiation by live animal imaging, mice were treated with PFI-3 or a PA (0.5 microgram per mouse (μg/mouse)) and TMZ (0.25 mg/mouse) by intrarperitoneal (IP) injection on alternate days. The reduction in tumor volume was calculated at 2 weeks post-treatment.
BRG1 loss sensitizes BTICs to TMZ in vitro and in vivo: Although the alkylating agent TMZ is front-line chemotherapy in the treatment of GBM, a significant clinical problem is intrinsic or adaptive resistance to TMZ.^63 To evaluate TMZ sensitivity, GBM6 or X16 BTICs were treated with 300 μM or 500 μM TMZ, and cell proliferation was determined. […] Since BRG1 has been implicated in DNA double-strand break repair,^65-67 it was hypothesized that BRG1 loss in BTICs would sensitize BTICs to TMZ. […] To determine whether BRG1-KD sensitized BTICs to TMZ in vivo, animal studies were conducted with control (scrambled shRNA) and BRG1-KD X16 BTICs injected into the flanks of NSG mice. After tumor initiation was confirmed by live animal imaging, mice were treated with TMZ. […] Thus, despite X16 BRG1-KD BTICs producing larger tumors, the tumors were sensitized to TMZ therapy.
In contrast, all mice with single drug treatment had to be euthanized because the tumors had reached […] by 3 weeks post-treatment.

For test [2], the system named is GBM cells. The experiment in a line: overall statements on GBM cell death and sensitization to TMZ. The test is classed as cell-based. The source says: The syntheses of two exemplary PA BRIs, referred to herein as YH-IV-073 (or IV-073), and YH-IV-077 (or IV-077), as well as of PFI-3 (also referred to herein as YH-IV-081), are shown in Scheme 2, below. As shown in Scheme 2, commercially available tert-butyloxycarbonyl (BOC)-protected amine 1 is contacted with 2-bromopyridine (2) to form intermediate 3. The protecting group can be removed (e.g., via hydrolysis) to give the corresponding amine 4. Compound 4 can be coupled with a carboxylic acid (5, 6, or 7) to afford target YH-IV-073, YH-IV-077 and YH-IV-081, respectively. […] These analogs will provide greater insight into the importance of substitution of the A ring.
The synthetic route shown in Scheme 3, below, was used to synthesize new analogs with different substituents in the 2-position of the A-ring, such as YH-IV-085. As shown in Scheme 3, a commercially available 1-phenylprop-2-yn-1-one (e.g., 8 or 9) can be reacted with BOC-protected amine compound 1 to afford a BOC-protected intermediate (e.g., 10 or 11), which can be hydrolyzed to provide corresponding deprotected intermediate (12 or 13). The intermediates can be coupled with the 2-bromopyridine (2) to yield target compounds (e.g., 14 or YH-IV-085), respectively. YH-IV-085 is believed to be the first PFI-3 analog prepared without a 2-hydroxy moiety in the A-ring.

The subject of test [3] is X10 BTICs. To be noted: cited from earlier work.
The test system of test [4] is cancer cell lines (lung, synovial sarcoma, leukemia, and rhabdoid tumor cells). To be noted: panel of cancer cell lines; cited from earlier work.
Test [5] deals with BTICs. To be noted: cited from earlier work.

SMILES strings stand for the structures.

On to `O=C(/C=C/N1C[C@H]2C[C@@H]1CN2c1ccccn1)c1ccccc1O` [PFI-3, (E)-1-(2-hydroxyphenyl)-3-((1R,4R)-5-(pyridin-2-yl)-2,5-diazabicyclo[2.2.1]heptan-2-yl)prop-2-en-1-one], for which the “tumors after treatment for 8 weeks” value in test [1] is “less dramatic effect”. The “sensitizing GBM cells to DNA alkylation by TMZ” value in test [2] (also in cells resistant to DNA alkylation agents) is on record as “capable of sensitizing GBM cells”. Also, in test [2] (used alone), the GBM cell death result is reported as “do not cause GBM cell death”. Besides, the “sensitization to Carmustine” value in test [3] (X10 BTICs, PFI-3 treatment) is “sensitized”. The “effect on X10 BTIC proliferation” value in test [3] (combination of PFI-3 and TMZ) is on record as “marked effect on X10 BTIC proliferation”. The proliferation or tumorgenicity result in test [4] was “not to inhibit the proliferation or tumorgenicity”. Further, in test [5] (PFI-3 alone), the “effect on BTIC proliferation” value is listed as “little effect on BTIC proliferation”. Moreover, the “stemness of BTICs” value in test [5] is on record as “inhibits the stemness of BTICs”. Besides, in test [5] (in vitro), the “sensitization of BTICs to DNA alkylating agents” value is reported as “sensitizes BTICs to DNA alkylating agents”.
